Test results reported in ChEMBL document CHEMBL1201862, “PubChem BioAssay data set” (2004).
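Assay format: 96-well plates, 48-hour exposure. Here, GI50 denotes the concentration required for 50% inhibition of growth.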 Activity calls are given as the source filed them. No stated cut-off is given here; in the data, active = GI50 up to about 1.1 µM and inactive = higher.

Tests used:
Experiment in all cases: DTP human tumour cell line panel, 48 h
[1] = test system: U-251
[2] = test system: RXF 393
[3] = test system: Malme-3M
[4] = test system: TK-10
[5] = test system: UACC-257
[6] = test system: NCI-H23
[7] = test system: CAKI-1
[8] = test system: HCT-116
[9] = test system: SNB-19
[10] = test system: NCI-H460
[11] = test system: DMS-114
[12] = test system: HOP-62
[13] = test system: HCC 2998
[14] = test system: DMS-273
[15] = test system: HCT-15
[16] = test system: NCI-H226
[17] = test system: SR
[18] = test system: SF-539
[19] = test system: HOP-18
[20] = test system: A498
[21] = test system: UO-31
[22] = test system: SW-620
[23] = test system: IGROV-1
[24] = test system: SK-MEL-5
[25] = test system: M14
[26] = test system: K562
[27] = test system: LXFL 529
[28] = test system: MOLT-4
[29] = test system: CCRF-CEM
[30] = test system: OVCAR-8
[31] = test system: KM-20L2
[32] = test system: HOP-92
[33] = test system: OVCAR-4
[34] = test system: NCI-H522
[35] = test system: SK-MEL-2
[36] = test system: HT-29
[37] = test system: SNB-78
[38] = test system: EKVX
[39] = test system: A549
[40] = test system: SF-268
[41] = test system: SNB-75
[42] = test system: XF498
[43] = test system: OVCAR-3
[44] = test system: UACC-62
[45] = test system: SN12C
[46] = test system: SF-295
[47] = test system: SK-MEL-28
[48] = test system: RPMI-8226
[49] = test system: DLD-1
[50] = test system: KM12
[51] = test system: SK-OV-3
[52] = test system: LOX IMVI
[53] = test system: HL-60
[54] = test system: ACHN
[55] = test system: M19-MEL
[56] = test system: COLO 205
[57] = test system: OVCAR-5
[58] = test system: RXF 631
[59] = test system: 786-0
[60] = test system: MDA-N
[61] = test system: MDA-MB-231
[62] = test system: NCI/ADR-RES
[63] = test system: BT-549
[64] = test system: DU-145
[65] = test system: T47D
[66] = test system: MCF7
[67] = test system: PC-3
[68] = test system: Hs-578T
[69] = test system: MDA-MB-435

## C=C1C(=O)OC2/C=C(\C(=O)O)CC/C=C(\C)CC(OC(=O)/C=C(\C)CC)C12 (centres undefined)
[1]
  GI50: 17 µM (inactive)
[2]
  GI50: 14 µM (inactive)
[3]
  GI50: 18.2 µM (inactive)
[4]
  GI50: 34.6 µM (inactive)
[5]
  GI50: 18.2 µM (inactive)
[6]
  GI50: 16.4 µM (inactive)
[7]
  GI50: 19.3 µM (inactive)
[8]
  GI50: 12.9 µM (inactive)
[9]
  GI50: 18.9 µM (inactive)
[10]
  GI50: 16.1 µM (inactive)
[11]
  GI50: 15.4 µM (inactive)
[12]
  GI50: 20.1 µM (inactive)
[13]
  GI50: 18.6 µM (inactive)
[14]
  GI50: 19 µM (inactive)
[15]
  GI50: 14.6 µM
[16]
  GI50: 17.9 µM (inactive)
[17]
  GI50: > 100 µM (inactive)
[18]
  GI50: 15.7 µM (inactive)
[19]
  GI50: 21.7 µM (inactive)
[20]
  GI50: 17.9 µM (inactive)
[21]
  GI50: 19.9 µM (inactive)
[22]
  GI50: 16.6 µM (inactive)
[23]
  GI50: 19.4 µM (inactive)
[24]
  GI50: 18.8 µM (inactive)
[25]
  GI50: 16.7 µM (inactive)
[26]
  GI50: > 100 µM (inactive)
[27]
  GI50: 16.9 µM (inactive)
[28]
  GI50: > 100 µM (inactive)
[29]
  GI50: > 100 µM (inactive)
[30]
  GI50: 17.2 µM (inactive)
[31]
  GI50: 19.6 µM (inactive)
[32]
  GI50: 20.9 µM (inactive)
[33]
  GI50: 16.9 µM (inactive)
[34]
  GI50: 17.8 µM (inactive)
[35]
  GI50: 14.4 µM (inactive)
[36]
  GI50: 15.7 µM (inactive)
[37]
  GI50: 23 µM (inactive)
[38]
  GI50: 24.7 µM (inactive)
[39]
  GI50: 16 µM (inactive)
[40]
  GI50: 14.9 µM (inactive)
[41]
  GI50: 19.5 µM (inactive)
[42]
  GI50: 18.3 µM (inactive)
[43]
  GI50: 16.3 µM (inactive)
[44]
  GI50: 14.3 µM (inactive)
[45]
  GI50: 17 µM (inactive)
[46]
  GI50: 17.3 µM (inactive)
[47]
  GI50: 18.8 µM (inactive)
[48]
  GI50: 3.45 µM (inactive)
[49]
  GI50: 16.7 µM (inactive)
[50]
  GI50: 14.4 µM (inactive)
[51]
  GI50: 20.3 µM (inactive)
[52]
  GI50: 15.3 µM (inactive)
[53]
  GI50: 72.6 µM (inactive)
[54]
  GI50: 17 µM (inactive)
[55]
  GI50: 15.6 µM (inactive)
[56]
  GI50: 17 µM (inactive)
[57]
  GI50: 13.5 µM (inactive)

## c1ccc(-c2nc3sccn3n2)cc1
[1]
  GI50: > 100 µM (inactive)
[2]
  GI50: > 100 µM (inactive)
[4]
  GI50: > 100 µM (inactive)
[5]
  GI50: > 100 µM (inactive)
[6]
  GI50: > 100 µM (inactive)
[8]
  GI50: > 100 µM (inactive)
[9]
  GI50: > 100 µM (inactive)
[10]
  GI50: > 100 µM (inactive)
[11]
  GI50: > 100 µM (inactive)
[12]
  GI50: > 100 µM (inactive)
[14]
  GI50: > 100 µM (inactive)
[17]
  GI50: > 100 µM (inactive)
[20]
  GI50: > 100 µM (inactive)
[21]
  GI50: > 100 µM (inactive)
[23]
  GI50: > 100 µM (inactive)
[25]
  GI50: > 100 µM (inactive)
[26]
  GI50: > 100 µM (inactive)
[28]
  GI50: > 100 µM (inactive)
[29]
  GI50: > 100 µM (inactive)
[30]
  GI50: > 100 µM (inactive)
[32]
  GI50: 74.3 µM (inactive)
[34]
  GI50: > 100 µM (inactive)
[36]
  GI50: > 100 µM (inactive)
[38]
  GI50: > 100 µM (inactive)
[39]
  GI50: > 100 µM (inactive)
[40]
  GI50: > 100 µM (inactive)
[44]
  GI50: > 100 µM (inactive)
[46]
  GI50: > 100 µM (inactive)
[47]
  GI50: > 100 µM (inactive)
[58]
  GI50: > 100 µM (inactive)
[50]
  GI50: > 100 µM (inactive)
[51]
  GI50: > 100 µM (inactive)
[53]
  GI50: > 100 µM (inactive)
[54]
  GI50: > 100 µM (inactive)
[55]
  GI50: > 100 µM (inactive)
[57]
  GI50: > 100 µM (inactive)

## O=C1C(O)=C(CC=C(Cl)Cl)C(=O)c2ccccc21
[1]
  GI50: 2.62 µM (inactive)
[2]
  GI50: 28.7 µM (inactive)
[59]
  GI50: 6.17 µM (inactive)
[3]
  GI50: 10.8 µM (inactive)
[4]
  GI50: 38.9 µM (inactive)
[5]
  GI50: 15.1 µM (inactive)
[6]
  GI50: 27.9 µM (inactive)
[7]
  GI50: 23.1 µM (inactive)
[8]
  GI50: 1.36 µM (inactive)
[60]
  GI50: 16.4 µM (inactive)
[9]
  GI50: 11 µM (inactive)
[10]
  GI50: 1.45 µM (inactive)
[61]
  GI50: 15.1 µM (inactive)
[11]
  GI50: 18 µM (inactive)
[12]
  GI50: 12.4 µM (inactive)
[13]
  GI50: 28 µM (inactive)
[14]
  GI50: 2.04 µM (inactive)
[62]
  GI50: 19.1 µM (inactive)
[15]
  GI50: 0.757 µM
[17]
  GI50: 1.08 µM (active)
[18]
  GI50: 10 µM (inactive)
[19]
  GI50: 25.4 µM (inactive)
[63]
  GI50: 18.3 µM (inactive)
[20]
  GI50: 30 µM (inactive)
[21]
  GI50: 20.7 µM (inactive)
[22]
  GI50: 8.93 µM (inactive)
[64]
  GI50: 23.8 µM (inactive)
[65]
  GI50: 38.5 µM (inactive)
[66]
  GI50: 8.87 µM (inactive)
[23]
  GI50: 6.5 µM (inactive)
[24]
  GI50: 8 µM (inactive)
[25]
  GI50: 12.6 µM (inactive)
[26]
  GI50: 1.82 µM (inactive)
[27]
  GI50: 2.38 µM (inactive)
[28]
  GI50: 1.46 µM (inactive)
[29]
  GI50: 2.82 µM (inactive)
[30]
  GI50: 5.48 µM (inactive)
[31]
  GI50: 9.42 µM (inactive)
[32]
  GI50: 43 µM (inactive)
[67]
  GI50: 10.9 µM (inactive)
[68]
  GI50: 42.4 µM (inactive)
[33]
  GI50: 21.7 µM (inactive)
[34]
  GI50: 14 µM (inactive)
[35]
  GI50: 17.7 µM (inactive)
[36]
  GI50: 4.6 µM (inactive)
[69]
  GI50: 11 µM (inactive)
[37]
  GI50: 21.9 µM (inactive)
[38]
  GI50: 42.3 µM (inactive)
[39]
  GI50: 4.44 µM (inactive)
[40]
  GI50: 11.7 µM (inactive)
[41]
  GI50: 50.6 µM (inactive)
[42]
  GI50: 32.3 µM (inactive)
[43]
  GI50: 13.5 µM (inactive)
[44]
  GI50: 4.91 µM (inactive)
[45]
  GI50: 12.9 µM (inactive)
[47]
  GI50: 23.4 µM (inactive)
[48]
  GI50: 2.28 µM (inactive)
[49]
  GI50: 1.65 µM (inactive)
[50]
  GI50: 6.46 µM (inactive)
[51]
  GI50: 41.6 µM (inactive)
[52]
  GI50: 2.23 µM (inactive)
[53]
  GI50: 2.07 µM (inactive)
[54]
  GI50: 12.3 µM (inactive)
[55]
  GI50: 7.64 µM (inactive)
[56]
  GI50: 19.5 µM (inactive)
[57]
  GI50: 47.5 µM (inactive)
